According to patent US11834454B2, “Alkynylphenylbenzamide compounds and applications thereof” (SHENZHEN NEWDEL BIOTECH CO., LTD., priority 2021, dated 2023):

Key:
Format in all cases: cell-based, mouse
BaF3-CD74-NTRK1 = target: T1, BaF3-CD74-NTRK1 (Homo sapiens, UniProt P04629); test: Cell proliferation inhibition, Ba/F3-TRKs stable strain (CCK-8); details: 72 hours, read-out: cell viability IC50 CD74-NTRK1
T1 construct: fused on or other part: P04233 (HLA class II histocompatibility antigen gamma chain)
Method in brief: (§1)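 Mouse Ba/F3 pre-B cells stably expressing CD74-NTRK1, ETV6-NTRK2 or ETV6-NTRK3 fusions and grown without IL3 were seeded at 8000-12000 cells/well.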

BaF3-ETV6-NTRK3 = target: T2, BaF3-ETV6-NTRK3 (Homo sapiens, UniProt Q16288); test: as above; details: 72 hours, read-out: cell viability IC50 ETV6-NTRK3
T2 construct: fused on or other part: P41212 (Transcription factor ETV6)
Method in brief: as §1

BaF3-CD74-NTRK1-F589L = target: T3, BaF3-CD74-NTRK1-F589L (Homo sapiens, UniProt P04629, F589L); test: Drug-resistant cell proliferation inhibition (CCK-8); details: 72 hours, read-out: drug-resistant cell viability IC50
T3 construct: fused on or other part: P04233 (HLA class II histocompatibility antigen gamma chain)
Source text: (§2) BaF3 cells (mouse pre-B cells) used in this experiment were purchased from Japan Cell Bank, all of the monoclonal stable strains, BaF3-CD74-NTRK1-G667C, BaF3-CD74-NTRK1-F589L, BaF3-CD74-NTRK1-G595R, BaF3-CD74-NTRK1-G667A, BaF3-CD74-NTRK1-V573M, BaF3-ETV6-NTRK2-G639R, BaF3-ETV6-NTRK2-G709C, BaF3-ETV6-NTRK2-V617M, BaF3-ETV6-NTRK2-F633L, BaF3-ETV6-NTRK3-G696C, BaF3-ETV6-NTRK3-G696A, BaF3-ETV6-NTRK3-G623R, BaF3-ETV6-NTRK3-G623E, BaF3-ETV6-NTRK3-F617L and BaF3-ETV6-NTRK3-V601M were constructed by our laboratory, and were identified by experiments such as positive control, protein expression and gene sequencing.
(§3) The brief steps for stable strains construction were as follows: constructed pCDNA3.1(+) plasmid vector carrying genes such as BaF3-CD74-NTRK1-G667C, BaF3-CD74-NTRK1-F589L, BaF3-CD74-NTRK1-G595R, BaF3-CD74-NTRK1-G667A, BaF3-CD74-NTRK1-V573M, BaF3-ETV6-NTRK2-G639R, BaF3-ETV6-NTRK2-G709C, BaF3-ETV6-NTRK2-V617M, BaF3-ETV6-NTRK2-F633L, BaF3-ETV6-NTRK3-G696C, BaF3-ETV6-NTRK3-G696A, BaF3-ETV6-NTRK3-G623R, BaF3-ETV6-NTRK3-G623E, BaF3-ETV6-NTRK3-F617L and BaF3-ETV6-NTRK3-V601M; the plasmid was electroporated into Ba/F3 cells using Amaxa® Cell Line Nucleofector® Kit V; 48 hours after of electroporation, geneticin (G418) with a final concentration of 1000 μg/mL was added to screen for two weeks, and the interleukin 3 (IL3) was removed to continue screening to obtain polyclonal stable strains; and then single clones were selected by limiting dilution method; the stable strains were then identified by the positive drugs, Western Blot (WB), and gene sequencing; the correct monoclonal through identification can be used to study the cell proliferation inhibitory activity of the inhibitors.
(§4) Cell proliferation inhibitory activity study: The cells in logarithmic growth phase were seeded into 96-well plates at 8000-12000 cells/well, and the inhibitors at different concentrations of (0-10 μM) were added the next day, and the culture was continued for 72 hours; then 10 μL of Cell Counting Kit-8 Cell Counting Reagent (CCK-8 Reagent) was added to each well, and continued to incubate for 1-3 hours; then its absorbance at 450 nm and 650 nm were measured with a super microplate reader. The median inhibitory concentration (IC50) was calculated using medical graphing software (GraphPad Prism 8.0.0).

BaF3-CD74-NTRK1-G667C = target: T4, BaF3-CD74-NTRK1-G667C (Homo sapiens, UniProt P04629, G667C); test: as above; details: 72 hours, read-out: drug-resistant cell viability IC50
T4 construct: fused on or other part: P04233 (HLA class II histocompatibility antigen gamma chain)
Source text: as §2, §3, §4

BaF3-ETV6-NTRK3-F617L = target: T5, BaF3-ETV6-NTRK3-F617L (Homo sapiens, UniProt Q16288, F617L); test: as above; details: 72 hours, read-out: drug-resistant cell viability IC50
T5 construct: constructed pCDNA3.1(+) plasmid vector carrying genes such as; fused on or other part: P41212 (Transcription factor ETV6)
Source text: as §2, §3, §4

BaF3-ETV6-NTRK3-G623E = target: T6, BaF3-ETV6-NTRK3-G623E (Homo sapiens, UniProt Q16288, G623E); test: as above; details: 72 hours, read-out: drug-resistant cell viability IC50
T6 construct: constructed pCDNA3.1(+) plasmid vector carrying genes such as; fused on or other part: P41212 (Transcription factor ETV6)
Source text: as §2, §3, §4

BaF3-ETV6-NTRK3-G623R = target: T7, BaF3-ETV6-NTRK3-G623R (Homo sapiens, UniProt Q16288, G623R); test: as above; details: 72 hours, read-out: drug-resistant cell viability IC50
T7 construct: constructed pCDNA3.1(+) plasmid vector carrying genes such as; fused on or other part: P41212 (Transcription factor ETV6)
Source text: as §2, §3, §4

BaF3-ETV6-NTRK3-G696A = target: T8, BaF3-ETV6-NTRK3-G696A (Homo sapiens, UniProt Q16288, G696A); test: as above; details: 72 hours, read-out: drug-resistant cell viability IC50
T8 construct: constructed pCDNA3.1(+) plasmid vector carrying genes such as; fused on or other part: P41212 (Transcription factor ETV6)
Source text: as §2, §3, §4

BaF3-ETV6-NTRK3-G696C = target: T9, BaF3-ETV6-NTRK3-G696C (Homo sapiens, UniProt Q16288, G696C); test: as above; details: 72 hours, read-out: drug-resistant cell viability IC50
T9 construct: constructed pCDNA3.1(+) plasmid vector carrying genes such as; fused on or other part: P41212 (Transcription factor ETV6)
Source text: as §2, §3, §4

BaF3-ETV6-NTRK2 = target: T10, BaF3-ETV6-NTRK2 (Homo sapiens, UniProt Q16620); test: Cell proliferation inhibition, Ba/F3-TRKs stable strain (CCK-8); details: 72 hours, read-out: cell viability IC50 ETV6-NTRK2
T10 construct: fused on or other part: P41212 (Transcription factor ETV6)
Method in brief: as §1

BaF3-ETV6-NTRK2-G639R = target: T11, BaF3-ETV6-NTRK2-G639R (Homo sapiens, UniProt Q16620, G623R); test: Drug-resistant cell proliferation inhibition (CCK-8); details: 72 hours, read-out: drug-resistant cell viability IC50
T11 construct: constructed pCDNA3.1(+) plasmid vector carrying genes such as; fused on or other part: P41212 (Transcription factor ETV6)
Source text: as §2, §3, §4

BaF3-ETV6-NTRK2-G709C = target: T12, BaF3-ETV6-NTRK2-G709C (Homo sapiens, UniProt Q16620, G693C); test: as above; details: 72 hours, read-out: drug-resistant cell viability IC50
T12 construct: constructed pCDNA3.1(+) plasmid vector carrying genes such as; fused on or other part: P41212 (Transcription factor ETV6)
Source text: as §2, §3, §4

T5 sequence (Q16288 whole entry F617L, the tested form may be a part): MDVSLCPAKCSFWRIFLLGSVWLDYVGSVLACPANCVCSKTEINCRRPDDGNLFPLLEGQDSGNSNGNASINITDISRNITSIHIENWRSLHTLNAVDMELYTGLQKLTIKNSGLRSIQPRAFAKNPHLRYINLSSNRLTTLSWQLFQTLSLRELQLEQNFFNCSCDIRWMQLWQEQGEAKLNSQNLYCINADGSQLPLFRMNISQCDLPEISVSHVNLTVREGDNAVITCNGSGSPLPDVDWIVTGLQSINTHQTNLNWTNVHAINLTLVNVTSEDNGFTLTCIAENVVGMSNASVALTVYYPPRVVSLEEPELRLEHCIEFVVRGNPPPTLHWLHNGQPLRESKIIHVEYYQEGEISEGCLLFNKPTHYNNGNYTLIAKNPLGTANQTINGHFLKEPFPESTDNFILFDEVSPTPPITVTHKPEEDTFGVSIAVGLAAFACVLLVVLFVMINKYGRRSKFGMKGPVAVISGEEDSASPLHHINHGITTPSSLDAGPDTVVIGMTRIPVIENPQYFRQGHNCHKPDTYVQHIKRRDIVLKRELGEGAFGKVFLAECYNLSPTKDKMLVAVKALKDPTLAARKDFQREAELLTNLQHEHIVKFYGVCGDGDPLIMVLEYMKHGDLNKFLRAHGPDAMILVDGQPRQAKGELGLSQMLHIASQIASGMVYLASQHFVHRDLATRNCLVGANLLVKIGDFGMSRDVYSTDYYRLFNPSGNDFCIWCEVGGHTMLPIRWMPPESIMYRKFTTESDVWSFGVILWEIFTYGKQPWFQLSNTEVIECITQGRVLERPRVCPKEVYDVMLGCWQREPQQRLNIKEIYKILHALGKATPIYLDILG
T8 sequence (Q16288 whole entry G696A, the tested form may be a part): as the sequence (Q16288 whole entry F617L, the tested form may be a part) above, with L617F, G696A counted along it
T6 sequence (Q16288 whole entry G623E, the tested form may be a part): as the sequence (Q16288 whole entry F617L, the tested form may be a part) above, with L617F, G623E counted along it
T3 sequence (P04629 510-796 F589L limits assumed): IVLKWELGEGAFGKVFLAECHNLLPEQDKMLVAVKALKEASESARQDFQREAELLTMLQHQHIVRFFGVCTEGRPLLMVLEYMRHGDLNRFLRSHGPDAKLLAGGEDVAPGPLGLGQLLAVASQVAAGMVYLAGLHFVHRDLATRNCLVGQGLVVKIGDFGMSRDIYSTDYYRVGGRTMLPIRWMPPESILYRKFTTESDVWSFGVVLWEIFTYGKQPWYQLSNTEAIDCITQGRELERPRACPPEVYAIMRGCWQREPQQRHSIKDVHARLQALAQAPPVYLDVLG
T4 sequence (P04629 510-796 G667C limits assumed): as the sequence (P04629 510-796 F589L limits assumed) above, with L80F, G158C counted along it
T12 sequence (Q16620 538-822 G693C limits assumed): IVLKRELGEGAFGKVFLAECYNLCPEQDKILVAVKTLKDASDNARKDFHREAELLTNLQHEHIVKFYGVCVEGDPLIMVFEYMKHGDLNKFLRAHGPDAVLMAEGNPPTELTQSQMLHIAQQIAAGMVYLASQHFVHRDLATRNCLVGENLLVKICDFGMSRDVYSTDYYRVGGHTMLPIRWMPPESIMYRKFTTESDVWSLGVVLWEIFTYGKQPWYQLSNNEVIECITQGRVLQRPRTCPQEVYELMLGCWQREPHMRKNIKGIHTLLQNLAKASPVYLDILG
T11 sequence (Q16620 538-822 G623R limits assumed): as the sequence (Q16620 538-822 G693C limits assumed) above, with G86R, C156G counted along it
T7 sequence (Q16288 whole entry G623R, the tested form may be a part): as the sequence (Q16288 whole entry F617L, the tested form may be a part) above, with L617F, G623R counted along it
T10 sequence (Q16620 538-822 limits assumed): as the sequence (Q16620 538-822 G693C limits assumed) above, with C156G counted along it
T9 sequence (Q16288 whole entry G696C, the tested form may be a part): as the sequence (Q16288 whole entry F617L, the tested form may be a part) above, with L617F, G696C counted along it
T1 sequence (P04629 510-796 limits assumed): as the sequence (P04629 510-796 F589L limits assumed) above, with L80F counted along it
T2 sequence (Q16288 whole entry, the tested form may be a part): as the sequence (Q16288 whole entry F617L, the tested form may be a part) above, with L617F counted along it

Row | Compound | IC50 (BaF3-CD74-NTRK1) [nM] | IC50 (BaF3-ETV6-NTRK3) [nM] | IC50 (BaF3-CD74-NTRK1-F589L) [nM] | IC50 (BaF3-CD74-NTRK1-G667C) [nM] | IC50 (BaF3-ETV6-NTRK3-F617L) [nM] | IC50 (BaF3-ETV6-NTRK3-G623E) [nM] | IC50 (BaF3-ETV6-NTRK3-G623R) [nM] | IC50 (BaF3-ETV6-NTRK3-G696A) [nM] | IC50 (BaF3-ETV6-NTRK3-G696C) [nM] | IC50 (BaF3-ETV6-NTRK2) [nM] | IC50 (BaF3-ETV6-NTRK2-G639R) [nM] | IC50 (BaF3-ETV6-NTRK2-G709C) [nM]
1 | Cc1c(C#Cc2cnc3ccc(N4CCC(O)CC4)nn23)cccc1C(=O)Nc1cc(Cl)cc(C(F)(F)F)c1 [XS3-55, N-(3-CHLORO-5-(TRIFLUOROMETHYL)PHENYL)-3-((6-(4-HYDROXYPIPERIDIN-1-YL)IMIDAZO[1,2-B]PYRIDAZINE-3-YL)ETHYNYL)-2-METHYLBENZAMIDE] | 10 to 100 | 10 to 100 | 100 to 1000 | < 10 | 10 to 100 | < 10 | 100 to 1000 | < 10 | < 10 |  |  | 
2 | Cc1c(C#Cc2cnc3ccc(N4CCOCC4)nn23)cccc1C(=O)Nc1cc(CN2CCN(C)CC2)cc(C(F)(F)F)c1 [XS3-68, 2-METHYL-N-(3-((4-METHYLPIPERAZIN-1-YL)METHYL)-5-(TRIFLUOROMETHYL)PHENYL)-3-((6-METHYLENE) LINOIMIDAZO[1,2-B]PYRIDAZIN-3-YL)ETHYNYL)BENZAMIDE] | < 10 | < 10 | 100 to 1000 | < 10 | 10 to 100 | < 10 | 10 to 100 | < 10 | < 10 | 10 to 100 | 10 to 100 | < 10
3 | Cc1c(C#Cc2cnc3ccc(N4CCC(O)CC4)nn23)cccc1C(=O)Nc1cc(CN2CCN(C)CC2)cc(C(F)(F)F)c1 [XS3-81, 3-((6-(4-HYDROXYPIPERIDIN-1-YL)IMIDAZO[1,2-B]PYRIDAZIN-3-YL)ETHYNYL)-2-METHYL-N-(3-(((4-METHYLPIPERAZIN-1-YL)METHYL)-5-(TRIFLUOROMETHYL)PHENYL)BENZAMIDE] | 10 to 100 | < 10 | 100 to 1000 | < 10 | 10 to 100 | < 10 | 10 to 100 | < 10 | < 10 | < 10 | 10 to 100 | 10 to 100
4 | Cc1cn(-c2cc(NC(=O)c3cccc(C#Cc4cnc5ccc(N6CCC(O)CC6)nn45)c3C)cc(C(F)(F)F)c2)cn1 [XS3-87, 3-((6-(4-HYDROXYPIPERIDIN-1-YL)IMIDAZO[1,2-B]PYRIDAZIN-3-YL)ETHYNYL)-2-METHYL-N-(3-(4-METHYL-1H-IMIDAZOL-1-YL)-5-(TRIFLUOROMETHYL)PHENYL)BENZAMIDE] | < 10 | < 10 | 10 to 100 | < 10 | < 10 | < 10 | 10 to 100 | < 10 | < 10 | 10 to 100 | 10 to 100 | < 10
